From publication PMC5680178, “D-Cateslytin, a new antimicrobial peptide with therapeutic potential” (Scientific Reports, 2017) come the findings set out here.

The test system of assay [1] is Prevotella intermedia (ATCC 49046). In words: microbe, parasite or virus in culture. Particulars: ATCC49046, 24 h, read-out: MIC (MIC alone).
Procedure: (§1) According to the European Committee on Antimicrobial Susceptibility Testing[20], the effect of a combination between two antibacterial compounds can be evaluated by their FICI (Fractional Inhibitory Concentration Index). The FICI consists of the sum of the FICs of both antibacterial agents: FIC index = FICantimicrobial + FICD-Ctl. For each compound, the FIC was determined as the ratio between the MIC of the compound in combination (MICcombination) and the MIC of the compound acting alone (MICalone). On the basis of their FIC index, each combination was categorized as synergistic (≤0.5), additive (>0.5 to 1), indifferent (>1 to <4) or antagonistic (≥4).
(§2) Microorganisms were cultured according to the manufacturer’s or the owner’s instructions in their respective media: Luria Bertani broth (Sigma) was used for E. coli strains, Mueller Hinton broth (Difco) for S. aureus strains and Anaerobe Basal broth (Oxoid) for F. nucleatum, P. intermedia and P. micra.
(§3) The MIC was determined by broth microdilution. An overnight culture of each bacterial strain was diluted (approximately to OD600 = 0,001) and microorganisms were plated in 96-well plates in the presence of different concentrations of antimicrobials, D-Ctl or L-Ctl alone or in combination. Three technical replicates were performed for each condition. After 24 hours of incubation, the microorganism growth was assessed by optical density OD600 using a Multiskan™ EX microplate spectrophotometer (Thermo Fisher Scientific). […] Each experiment was performed with at least three biological replicates.
Assay [2] shares this test system. The following applies: combination D-Ctl + amoxicillin.
Procedure: as §1, §2, §3
In assay [3] the test system is Parvimonas micra (ATCC 33270). Particulars: combination D-Ctl + amoxicillin.
Procedure: as §1, §2, §3
The test system of assay [4] is Parvimonas micra (ATCC 33270). In words: microbe, parasite or virus in culture. The following applies: ATCC33270, 24 h, read-out: MIC (MIC alone).
Procedure: as §1, §2, §3
Assay [5] has as its system Fusobacterium nucleatum (ATCC 49256). Particulars: combination D-Ctl + amoxicillin.
Procedure: as §1, §2, §3
The test system is the same in assay [6]. In words: microbe, parasite or virus in culture. The following applies: ATCC49256, 24 h, read-out: MIC (MIC alone).
Procedure: as §1, §2, §3

Converted amounts (≈) assume the structure as drawn.

As for `CC1(C)S[C@@H]2[C@H](NC(=O)[C@H](N)c3ccc(O)cc3)C(=O)N2[C@H]1C(=O)O` [Amoxicillin], the MIC in assay [1] came to 0.5 µg/mL (≈ 1.37 µM); in assay [4] it was 0.5 µg/mL (≈ 1.37 µM); in assay [6], 0.6 µg/mL (≈ 1.64 µM). Also, the FIC was 0.25 in assay [2] (MICcombination/MICalone), 0.25 in assay [3] (MICcombination/MICalone) and 0.5 in assay [5] (MICcombination/MICalone). The Effect entry is given as “Synergistic” in assay [2] (category by FIC index), “Synergistic” in assay [3] (category by FIC index) and “Additive” in assay [5] (category by FIC index). The FICI is 0.5 in assay [2] (sum of both FICs), 0.5 in assay [3] (sum of both FICs) and 1.0 in assay [5] (sum of both FICs).
